# In patent publication USRE47221E1, “Tricyclic compounds” (AbbVie Inc., priority 2009, dated 2019):
# System: not given
# Test: not given
row,melting point [°C],SMILES
1,225,"C[C@@H]1C[C@H](NS(=O)(=O)CCC(F)(F)F)C[C@@H]1c1cnc2cnc3[nH]ccc3n12 [Example #7, N-((1S,3S,4R)-3-(3H-imidazo[1,2-a]pyrrolo[2,3-e]pyrazin-8-yl)-4-methylcyclopentyl)-3,3,3-trifluoropropane-1-sulfonamide]"

# Molecular target: T1, Jak3 (Homo sapiens, UniProt P52333)
# T1 construct: Jak3 enzyme (aa 811-1103); expressed in SF9 cells as a GST fusion; GST; made in house; host or cells: SF9 insect cells
# Test: Jak3 enzyme data for selected compounds
# Type: biochemical
# T1 sequence (P52333 811-1103): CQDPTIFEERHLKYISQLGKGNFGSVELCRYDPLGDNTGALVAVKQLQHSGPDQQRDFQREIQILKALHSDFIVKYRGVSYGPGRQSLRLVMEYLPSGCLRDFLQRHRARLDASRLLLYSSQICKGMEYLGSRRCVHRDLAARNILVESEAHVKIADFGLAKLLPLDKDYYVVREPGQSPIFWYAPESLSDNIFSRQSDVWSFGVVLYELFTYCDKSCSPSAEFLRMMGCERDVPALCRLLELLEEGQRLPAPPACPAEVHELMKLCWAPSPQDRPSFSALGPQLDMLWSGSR
row,SMILES,IC50 [µM]
1,O=S(=O)(CCC(F)(F)F)N1CCN(c2ncc3cnc4[nH]ccc4n23)CC(F)C1 (centres unmarked) [D.1.65],> 1
2,"CC[C@@H]1C[C@H](OCC2CCOCC2)C[C@H]1c1nnc2cnc3[nH]ccc3n12 (single isomer, unassigned) [AA.1.66, 1-(2-ethyl-4-((tetrahydro-2H-pyran-4-yl)methoxy)cyclopentyl)-6H-pyrrolo[2,3-e][1,2,4]triazolo[4,3-a]pyrazine]",> 1
3,"CC[C@@H]1C[C@H](OCC2CCOCC2)C[C@@H]1c1nnc2cnc3[nH]ccc3n12 (single isomer, unassigned) [AA.1.67, 1-(2-ethyl-4-((tetrahydro-2H-pyran-4-yl)methoxy)cyclopentyl)-6H-pyrrolo[2,3-e][1,2,4]triazolo[4,3-a]pyrazine]",> 1
4,N#Cc1ccnc(NC[C@H]2CC[C@@H](c3nnc4cnc5[nH]ccc5n34)C2)c1 [D.2.23],> 1
5,"CC[C@@H]1C[C@H](OCc2ccc(OC)cc2)C[C@H]1c1n[nH]c2cnc3[nH]ccc3c12 (single isomer, unassigned) [compound 31]",0.1 to 1
6,"CC[C@H]1C[C@@H](NS(=O)(=O)CCC(F)(F)F)C[C@H]1c1cnc2cnc3[nH]ccc3n12 (single isomer, unassigned) [AA.1.76, N-(3-ethyl-4-(3H-imidazo[1,2-a]pyrrolo[2,3-e]pyrazin-8-yl)cyclopentyl)-3,3,3-trifluoropropane-1-sulfonamide]",> 1
7,"CC[C@@H]1C[C@H](OCc2ccc(OC)cc2)C[C@H]1c1nnc2cnc3[nH]ccc3n12 (single isomer, unassigned) [AA.1.32, 1-(2-ethyl-4-(4-methoxybenzyloxy)cyclopentyl)-6H-pyrrolo[2,3-e][1,2,4]triazolo [4,3-a]pyrazine]",0.1 to 1
8,CC[C@@H]1C[C@H](NS(=O)(=O)N2CCN(C)CC2)C[C@@H]1c1nnc2cnc3[nH]ccc3n12 [D.1.50],> 1
9,"C[C@@H]1CCN(C(=NC#N)N2CCCC2)C[C@@H]1c1ncc2cnc3[nH]ccc3n12 [Example #5, N-(((3R,4R)-3-(6H-imidazo[1,5-a]pyrrolo[2,3-e]pyrazin-1-yl)-4-methylpiperidin-1-yl)(pyrrolidin-1-yl)methylene)cyanamide]",0.1 to 1
10,"C[C@H]1C[C@H](Oc2ccc(C#N)cc2)C[C@@H]1c1nnc2cnc3[nH]ccc3n12 (single isomer, unassigned) [AA.1.94, 4-(3-methyl-4-(6H-pyrrolo[2,3-e][1,2,4]triazolo[4,3-a]pyrazin-1-yl)cyclopentyloxy)benzonitrile]",0.1 to 1
11,CC[C@@H]1C[C@H](NS(=O)(=O)CCn2nccn2)C[C@@H]1c1nnc2cnc3[nH]ccc3n12 [D.1.59],0.1 to 1
12,CC[C@@H]1C[C@H](NCCS(=O)(=O)N2CCC(F)(F)C2)C[C@@H]1c1nnc2cnc3[nH]ccc3n12 [D.1.62],> 1
13,"CC[C@@H]1C[C@H](NS(=O)(=O)C2CC2)C[C@@H]1c1nc(CCO)c2cnc3[nH]ccc3n12 [Example #18, N-((1S,3R,4S)-3-ethyl-4-(3-(2-hydroxyethyl)-6H-imidazo[1,5-a]pyrrolo[2,3-e]pyrazin-1-yl)cyclopentyl)cyclopropanesulfonamide]",0.1 to 1
14,"CC[C@H]1C[C@H](NS(=O)(=O)C2CC2)C[C@@H]1c1nnc2cnc3[nH]ccc3n12 (single isomer, unassigned) [AA.1.5]",0.1 to 1
15,"O=C(N1CCC[C@@H](c2cnc3cnc4[nH]ccc4n23)C1)N1CCC[C@@H]1C(F)(F)F [AA.1.10, (3-(3H-imidazo[1,2-a]pyrrolo[2,3-e]pyrazin-8-yl)piperidin-1-yl)((R)-2-(trifluoromethyl)pyrrolidin-1-yl)methanone]",0.1 to 1

# Second part, the compound after the results:
row,IC50 [µM],SMILES
1,0.1 to 1,"c1cc2c(ncc3ncn(C4CCCCC4)c32)[nH]1 [Example #21, 1-cyclohexyl-1,6-dihydroimidazo[4,5-d]pyrrolo[2,3-b]pyridine]"
2,< 0.1,"CC[C@@H]1C[C@H](Oc2cnc(C#N)cn2)C[C@H]1c1nnc2cnc3[nH]ccc3n12 (single isomer, unassigned) [AA.1.98, 5-(3-ethyl-4-(6H-pyrrolo[2,3-e][1,2,4]triazolo[4,3-a]pyrazin-1-yl)cyclopentyloxy)pyrazine-2-carbonitrile]"
3,< 0.1,C[C@@H]1C[C@H](NS(=O)(=O)CCC(F)(F)F)C[C@@H]1c1ncc2cnc3[nH]ccc3n12 [D.1.79]
4,0.1 to 1,CC[C@@H]1C[C@H](NS(=O)(=O)N2CCC2)C[C@@H]1c1nnc2cnc3[nH]ccc3n12 [D.1.10]
5,0.1 to 1,O=S(=O)(NC12CCC(c3nnc4cnc5[nH]ccc5n34)(CC1)CC2)N1CCC1 [D.1.29]
6,< 0.1,"O=C(N1CCC[C@@H](c2cnc3cnc4[nH]ccc4n23)C1)N1CC(F)(F)C1 (single isomer, unassigned) [AA.1.6, (3-(3H-imidazo[1,2-a]pyrrolo[2,3-e]pyrazin-8-yl)piperidin-1-yl)(3,3-difluoroazetidin-1-yl)methanone]"
7,0.1 to 1,CC1CCN(S(=O)(=O)CCC(F)(F)F)CCN1c1ncc2cnc3[nH]ccc3n12 (centres unmarked) [D.1.70]
8,< 0.1,C[C@@H]1CCN(C(=O)N2CC(F)C2)C[C@@H]1c1ncc2cnc3[nH]ccc3n12 [J.2.11]
9,< 0.1,N#CC1CN(C(=O)N2CCC[C@@H](c3ncc4cnc5[nH]ccc5n34)C2)C1 [J.3.4]
10,0.1 to 1,O=S(=O)(CCC(F)(F)F)NC1CCCN(c2ncc3cnc4[nH]ccc4n23)C1 (centres unmarked) [D.1.72]
11,< 0.1,"CC[C@@H]1C[C@H](NS(=O)(=O)C2CC2)C[C@]1(F)c1nnc2cnc3[nH]ccc3n12 (single isomer, unassigned) [AA.1.43, N-(cis-4-ethyl-3-fluoro-3-(6H-pyrrolo[2,3-e][1,2,4]triazolo[4,3-a]pyrazin-1-yl)cyclopentyl)cyclo-propanesulfonamide]"
12,< 0.1,C[C@@H]1CCN(C(=O)CCC#N)C[C@@H]1c1ncc2cnc3[nH]ccc3n12 [H.1.25]
13,< 0.1,C[C@@H]1CCN(C(=O)C2CCS(=O)(=O)C2)C[C@@H]1c1ncc2cnc3[nH]ccc3n12 (mixture of isomers) [H.1.29]
14,< 0.1,C[C@@H]1C[C@H](NS(=O)(=O)N2CCC(F)(F)C2)C[C@@H]1c1ncc2cnc3[nH]ccc3n12 [D.1.80]
15,< 0.1,C[C@H]1CCN(C(=O)N2CC[C@@H](C)[C@@H](c3ncc4cnc5[nH]ccc5n34)C2)C1 (racemic) [J.2.10]
16,< 0.1,"C[C@@H]1C[C@H](NS(=O)(=O)C2CC2)C[C@@H]1c1cnc2cnc3[nH]ccc3n12 (single isomer, unassigned) [Example #24]"
17,< 0.1,C[C@@H]1CCN(C(=O)N2CC[C@@H](F)C2)C[C@@H]1c1ncc2cnc3[nH]ccc3n12 [J.2.7]
18,< 0.1,"C[C@@H]1CCN(c2ncc(C#N)s2)C[C@@H]1c1ncc2cnc3[nH]ccc3n12 (single isomer, unassigned) [AA.1.11, 2-(-3-(6H-imidazo[1,5-a]pyrrolo[2,3-e]pyrazin-1-yl)-4-methylpiperidin-1-yl)thiazole-5-carbonitrile]"
19,< 0.1,C[C@@H]1CCN(C(=O)N2CCC[C@@H]2C#N)C[C@@H]1c1ncc2cnc3[nH]ccc3n12 [J.2.2]
